ChEMBL document CHEMBL3885881, “DrugMatrix”

Organism: Rattus norvegicus
Experiment: DrugMatrix - Regimen: Daily Repeat
Format: toxicity, organism-based, Sprague-Dawley
Design: regimen Daily Repeat, gender Male, age 6-8 weeks
Settings: in vivo, po, route oral GAVAGE, vehicle .5 % CMC; for BASOPHIL / EOSINOPHIL / ERYTHROCYTE COUNT / HEMATOCRIT / HEMOGLOBIN / LEUKOCYTE COUNT / LYMPHOCYTE / MEAN CORPUSCULAR HEMOGLOBIN / MEAN CORPUSCULAR HEMOGLOBIN CONCENTRATION / MEAN CORPUSCULAR VOLUME / MONOCYTE / NEUTROPHIL / PLATELET COUNT: tissue Blood; for ALANINE AMINOTRANSFERASE / ALBUMIN / ALKALINE PHOSPHATASE / ASPARTATE AMINOTRANSFERASE / BLOOD UREA NITROGEN / CARBON DIOXIDE / CHLORIDE / CHOLESTEROL / CREATINE PHOSPHOKINASE / CREATININE / GLUCOSE / LACTATE DEHYDROGENASE / LIPASE / PHOSPHORUS / POTASSIUM / SODIUM / TOTAL BILIRUBIN / TOTAL PROTEIN / URIC ACID: tissue Plasma
[1] = 0 mg/kg, 72 h, dose level Control, time 3 day
[2] = 0 mg/kg, 120 h, dose level Control, time 5 day
[3] = 0 mg/kg, […], dose level Control, time 14 day
[4] = 82 mg/kg, 72 h, dose level High, time 3 day
[5] = 82 mg/kg, 120 h, dose level High, time 5 day
[6] = 82 mg/kg, […], dose level High, time 14 day

## CCOP(=S)(OCC)Oc1nc(Cl)c(Cl)cc1Cl [CHLORPYRIFOS]
[1]
  BASOPHIL: 0.62%
  EOSINOPHIL: 0.52%
  ERYTHROCYTE COUNT: 6.33 x10E6/uL
  HEMATOCRIT: 41.88%
  HEMOGLOBIN: 13.52 G/DL
  LEUKOCYTE COUNT: 11.39 x10E3/uL
  LYMPHOCYTE: 86.18%
  MEAN CORPUSCULAR HEMOGLOBIN: 21.35 pg
  MEAN CORPUSCULAR HEMOGLOBIN CONCENTRATION: 32.23 G/DL
  MEAN CORPUSCULAR VOLUME: 66.25 fL
  MONOCYTE: 1.93%
  NEUTROPHIL: 9.1%
  PLATELET COUNT: 1204.5 x10E3/uL
  ALANINE AMINOTRANSFERASE: 43 u/L
  ALBUMIN: 4.08 G/DL
  ALKALINE PHOSPHATASE: 426.33 u/L
  ASPARTATE AMINOTRANSFERASE: 72.5 u/L
  BLOOD UREA NITROGEN: 16.67 mg/dL
  CARBON DIOXIDE: 28.33 mmol/L
  CHLORIDE: 103.5 MEQ/L
  CHOLESTEROL: 78.83 mg/dL
  CREATINE PHOSPHOKINASE: 325.67 u/L
  CREATININE: 0.48 mg/dL
  GLUCOSE: 171.67 mg/dL
  LACTATE DEHYDROGENASE: 107.33 u/L
  LIPASE: 11.83 u/L
  PHOSPHORUS: 12.55 mg/dL
  POTASSIUM: 6.57 MEQ/L
  SODIUM: 145.67 MEQ/L
  TOTAL BILIRUBIN: 0.42 mg/dL
  TOTAL PROTEIN: 6.1 G/DL
  URIC ACID: 1.57 mg/dL
[2]
  BASOPHIL: 0.48%
  EOSINOPHIL: 0.67%
  ERYTHROCYTE COUNT: 6.69 x10E6/uL
  HEMATOCRIT: 44.17%
  HEMOGLOBIN: 13.78 G/DL
  LEUKOCYTE COUNT: 7.86 x10E3/uL
  LYMPHOCYTE: 85.9%
  MEAN CORPUSCULAR HEMOGLOBIN: 20.6 pg
  MEAN CORPUSCULAR HEMOGLOBIN CONCENTRATION: 31.25 G/DL
  MEAN CORPUSCULAR VOLUME: 65.9 fL
  MONOCYTE: 3.27%
  NEUTROPHIL: 8.67%
  PLATELET COUNT: 1182.33 x10E3/uL
  ALANINE AMINOTRANSFERASE: 37.5 u/L
  ALBUMIN: 4 G/DL
  ALKALINE PHOSPHATASE: 348.17 u/L
  ASPARTATE AMINOTRANSFERASE: 71.67 u/L
  BLOOD UREA NITROGEN: 13 mg/dL
  CARBON DIOXIDE: 27 mmol/L
  CHLORIDE: 104.67 MEQ/L
  CHOLESTEROL: 73.33 mg/dL
  CREATINE PHOSPHOKINASE: 211.33 u/L
  CREATININE: 0.23 mg/dL
  GLUCOSE: 155 mg/dL
  LACTATE DEHYDROGENASE: 133.83 u/L
  LIPASE: 11.17 u/L
  PHOSPHORUS: 14.53 mg/dL
  POTASSIUM: 6.65 MEQ/L
  SODIUM: 148.17 MEQ/L
  TOTAL BILIRUBIN: 0.28 mg/dL
  TOTAL PROTEIN: 6.22 G/DL
  URIC ACID: 1.57 mg/dL
[3]
  BASOPHIL: 0.97%
  EOSINOPHIL: 0.8%
  ERYTHROCYTE COUNT: 7.02 x10E6/uL
  HEMATOCRIT: 44.43%
  HEMOGLOBIN: 14.58 G/DL
  LEUKOCYTE COUNT: 16.49 x10E3/uL
  LYMPHOCYTE: 79.03%
  MEAN CORPUSCULAR HEMOGLOBIN: 20.85 pg
  MEAN CORPUSCULAR HEMOGLOBIN CONCENTRATION: 32.78 G/DL
  MEAN CORPUSCULAR VOLUME: 63.57 fL
  MONOCYTE: 1.9%
  NEUTROPHIL: 15.18%
  PLATELET COUNT: 1184.33 x10E3/uL
  ALANINE AMINOTRANSFERASE: 43 u/L
  ALBUMIN: 4.25 G/DL
  ALKALINE PHOSPHATASE: 409.67 u/L
  ASPARTATE AMINOTRANSFERASE: 84.17 u/L
  BLOOD UREA NITROGEN: 16 mg/dL
  CARBON DIOXIDE: 35.17 mmol/L
  CHLORIDE: 99.83 MEQ/L
  CHOLESTEROL: 68.67 mg/dL
  CREATINE PHOSPHOKINASE: 384.17 u/L
  CREATININE: 0.43 mg/dL
  GLUCOSE: 160 mg/dL
  LACTATE DEHYDROGENASE: 115.33 u/L
  LIPASE: 17.33 u/L
  PHOSPHORUS: 10.68 mg/dL
  POTASSIUM: 6.48 MEQ/L
  SODIUM: 148.17 MEQ/L
  TOTAL BILIRUBIN: 0.45 mg/dL
  TOTAL PROTEIN: 6.57 G/DL
  URIC ACID: 1.78 mg/dL
[4]
  BASOPHIL: 0.9%
  EOSINOPHIL: 0.43%
  ERYTHROCYTE COUNT: 6.87 x10E6/uL
  HEMATOCRIT: 44.5%
  HEMOGLOBIN: 14.33 G/DL
  LEUKOCYTE COUNT: 11.45 x10E3/uL
  LYMPHOCYTE: 88.3%
  MEAN CORPUSCULAR HEMOGLOBIN: 20.9 pg
  MEAN CORPUSCULAR HEMOGLOBIN CONCENTRATION: 32.27 G/DL
  MEAN CORPUSCULAR VOLUME: 64.87 fL
  MONOCYTE: 1.27%
  NEUTROPHIL: 7.87%
  PLATELET COUNT: 1233 x10E3/uL
  ALANINE AMINOTRANSFERASE: 42 u/L
  ALBUMIN: 4.03 G/DL
  ALKALINE PHOSPHATASE: 285.67 u/L
  ASPARTATE AMINOTRANSFERASE: 78.33 u/L
  BLOOD UREA NITROGEN: 15.33 mg/dL
  CARBON DIOXIDE: 30.33 mmol/L
  CHLORIDE: 103.67 MEQ/L
  CHOLESTEROL: 47 mg/dL
  CREATINE PHOSPHOKINASE: 263.33 u/L
  CREATININE: 0.5 mg/dL
  GLUCOSE: 170 mg/dL
  LACTATE DEHYDROGENASE: 57.67 u/L
  LIPASE: 11 u/L
  PHOSPHORUS: 13.43 mg/dL
  POTASSIUM: 7.33 MEQ/L
  SODIUM: 146 MEQ/L
  TOTAL BILIRUBIN: 0.37 mg/dL
  TOTAL PROTEIN: 5.93 G/DL
  URIC ACID: 1.53 mg/dL
[5]
  BASOPHIL: 0.33%
  EOSINOPHIL: 0.5%
  ERYTHROCYTE COUNT: 7.39 x10E6/uL
  HEMATOCRIT: 47.37%
  HEMOGLOBIN: 15.03 G/DL
  LEUKOCYTE COUNT: 10.09 x10E3/uL
  LYMPHOCYTE: 72.77%
  MEAN CORPUSCULAR HEMOGLOBIN: 20.37 pg
  MEAN CORPUSCULAR HEMOGLOBIN CONCENTRATION: 31.73 G/DL
  MEAN CORPUSCULAR VOLUME: 64.2 fL
  MONOCYTE: 4.53%
  NEUTROPHIL: 20.93%
  PLATELET COUNT: 1284.67 x10E3/uL
  ALANINE AMINOTRANSFERASE: 55.33 u/L
  ALBUMIN: 3.9 G/DL
  ALKALINE PHOSPHATASE: 305.67 u/L
  ASPARTATE AMINOTRANSFERASE: 236.67 u/L
  BLOOD UREA NITROGEN: 13 mg/dL
  CARBON DIOXIDE: 28.33 mmol/L
  CHLORIDE: 103.67 MEQ/L
  CHOLESTEROL: 44.67 mg/dL
  CREATINE PHOSPHOKINASE: 186.67 u/L
  CREATININE: 0.33 mg/dL
  GLUCOSE: 139.33 mg/dL
  LACTATE DEHYDROGENASE: 62.67 u/L
  LIPASE: 8 u/L
  PHOSPHORUS: 12.8 mg/dL
  POTASSIUM: 6 MEQ/L
  SODIUM: 148 MEQ/L
  TOTAL BILIRUBIN: 0.27 mg/dL
  TOTAL PROTEIN: 6 G/DL
  URIC ACID: 1.63 mg/dL
[6]
  BASOPHIL: 0.37%
  EOSINOPHIL: 0.67%
  ERYTHROCYTE COUNT: 7.6 x10E6/uL
  HEMATOCRIT: 45.9%
  HEMOGLOBIN: 15.3 G/DL
  LEUKOCYTE COUNT: 16.12 x10E3/uL
  LYMPHOCYTE: 84.43%
  MEAN CORPUSCULAR HEMOGLOBIN: 20.2 pg
  MEAN CORPUSCULAR HEMOGLOBIN CONCENTRATION: 33.37 G/DL
  MEAN CORPUSCULAR VOLUME: 60.43 fL
  MONOCYTE: 1.7%
  NEUTROPHIL: 11.33%
  PLATELET COUNT: 1183 x10E3/uL
  ALANINE AMINOTRANSFERASE: 46 u/L
  ALBUMIN: 4.3 G/DL
  ALKALINE PHOSPHATASE: 329.67 u/L
  ASPARTATE AMINOTRANSFERASE: 114 u/L
  BLOOD UREA NITROGEN: 16.33 mg/dL
  CARBON DIOXIDE: 26.67 mmol/L
  CHLORIDE: 101 MEQ/L
  CHOLESTEROL: 72 mg/dL
  CREATINE PHOSPHOKINASE: 262 u/L
  CREATININE: 0.43 mg/dL
  GLUCOSE: 144 mg/dL
  LACTATE DEHYDROGENASE: 145.67 u/L
  LIPASE: 9 u/L
  PHOSPHORUS: 10.07 mg/dL
  POTASSIUM: 6.2 MEQ/L
  SODIUM: 149 MEQ/L
  TOTAL BILIRUBIN: 0.4 mg/dL
  URIC ACID: 1.8 mg/dL
